Source: patent publication US12209081B2 (Katholieke Universiteit Leuven, priority 2020, dated 2025)

target: mouse TRPM3α2 (mTRPM3) ion channel (Mus musculus (Mouse), UniProt J9SQF3); assay: TRPM3 ion channel driven Ca2+ uptake, Fluo-4 AM assay, mTRPM3alpha2 overexpressing flip-in HEK293 cells stimulated with pregnenolone sulfate; format: cell-based; settings: PS 50 μM, cpds 200-299
In short: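 Flip-in HEK293 cells loaded with Fluo-4 AM were added to plates holding compound plus 50 μM pregnenolone sulfate in Ca2+-containing Krebs buffer. Fluorescence (ex 485/em 535 nm) read directly after cell addition; % inhibition relative to PS-stimulated vehicle and positive-control inhibitor.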

mouse TRPM3α2 (mTRPM3) ion channel, sequence (J9SQF3 other isoform, or with tags, fused parts or gaps): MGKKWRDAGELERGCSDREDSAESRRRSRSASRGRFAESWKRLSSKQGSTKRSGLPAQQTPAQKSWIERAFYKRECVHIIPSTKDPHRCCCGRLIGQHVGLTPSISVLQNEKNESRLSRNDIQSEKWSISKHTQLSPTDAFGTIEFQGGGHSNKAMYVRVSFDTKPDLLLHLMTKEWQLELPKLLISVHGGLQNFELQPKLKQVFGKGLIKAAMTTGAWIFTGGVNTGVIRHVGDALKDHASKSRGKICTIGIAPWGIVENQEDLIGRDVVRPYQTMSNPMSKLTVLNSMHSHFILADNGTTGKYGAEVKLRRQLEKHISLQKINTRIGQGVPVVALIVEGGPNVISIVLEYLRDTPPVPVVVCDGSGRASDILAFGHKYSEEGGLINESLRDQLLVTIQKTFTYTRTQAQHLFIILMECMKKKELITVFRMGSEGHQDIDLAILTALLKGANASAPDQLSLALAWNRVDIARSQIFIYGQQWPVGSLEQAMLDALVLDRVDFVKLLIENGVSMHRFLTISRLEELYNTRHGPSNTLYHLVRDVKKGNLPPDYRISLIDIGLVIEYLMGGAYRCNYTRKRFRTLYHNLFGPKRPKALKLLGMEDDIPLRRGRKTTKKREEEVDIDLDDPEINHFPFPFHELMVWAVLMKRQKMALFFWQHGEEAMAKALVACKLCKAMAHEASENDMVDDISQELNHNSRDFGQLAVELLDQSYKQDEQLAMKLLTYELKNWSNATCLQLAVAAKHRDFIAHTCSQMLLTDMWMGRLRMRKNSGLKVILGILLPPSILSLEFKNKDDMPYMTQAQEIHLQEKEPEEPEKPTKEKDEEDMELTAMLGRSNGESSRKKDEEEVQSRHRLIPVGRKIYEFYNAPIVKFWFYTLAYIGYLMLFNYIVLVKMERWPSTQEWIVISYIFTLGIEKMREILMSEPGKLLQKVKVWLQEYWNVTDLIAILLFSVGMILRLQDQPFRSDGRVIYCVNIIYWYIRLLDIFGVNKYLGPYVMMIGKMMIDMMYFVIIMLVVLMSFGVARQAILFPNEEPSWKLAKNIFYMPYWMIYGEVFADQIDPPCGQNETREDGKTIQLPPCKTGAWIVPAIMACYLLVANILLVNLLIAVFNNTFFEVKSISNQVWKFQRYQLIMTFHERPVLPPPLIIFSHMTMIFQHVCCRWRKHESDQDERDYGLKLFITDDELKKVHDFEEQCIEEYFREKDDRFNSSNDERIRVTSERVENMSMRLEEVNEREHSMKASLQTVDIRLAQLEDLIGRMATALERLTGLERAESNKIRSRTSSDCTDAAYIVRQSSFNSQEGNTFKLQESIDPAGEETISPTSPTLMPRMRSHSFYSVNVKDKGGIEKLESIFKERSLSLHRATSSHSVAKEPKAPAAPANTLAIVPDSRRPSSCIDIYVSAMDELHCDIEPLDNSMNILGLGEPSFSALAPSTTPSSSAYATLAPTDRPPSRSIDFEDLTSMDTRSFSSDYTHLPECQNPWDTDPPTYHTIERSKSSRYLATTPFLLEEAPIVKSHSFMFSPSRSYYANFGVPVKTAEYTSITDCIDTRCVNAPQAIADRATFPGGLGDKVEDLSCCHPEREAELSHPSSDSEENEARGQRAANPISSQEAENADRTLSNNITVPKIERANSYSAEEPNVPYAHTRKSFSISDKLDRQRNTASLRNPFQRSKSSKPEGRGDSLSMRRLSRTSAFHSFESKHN

Structure (SMILES)	IC50
Cc1nc(COc2ccc3oc(C)c(C(=O)N[C@@H](CO)C(N)=O)c3c2)c(C)s1 [compound 299, (S)-N-(1-amino-3-hydroxy-1-oxopropan-2-yl)-5-((2,5-dimethylthiazol-4-yl)methoxy)-2-methylbenzofuran-3-carboxamide]	< 1 µM
Cc1oc2ccc(OCc3cnc(C(F)(F)F)s3)cc2c1C(=O)N[C@@H](CO)C(N)=O [compound 281, (S)-N-(1-amino-3-hydroxy-1-oxopropan-2-yl)-2-methyl-5-((2-(trifluoromethyl)thiazol-5-yl)methoxy)benzofuran-3-carboxamide]	< 1 µM

same assay, conditions: PS 50 μM, cpds 300-399

Structure (SMILES)	IC50
Cc1ncc(COc2ccc3oc(C)c(C(=O)NCC4(F)CC4)c3c2)s1 [compound 372, N-((1-fluorocyclopropyl)methyl)-2-methyl-5-((2-methylthiazol-5-yl)methoxy)benzofuran-3-carboxamide]	< 1 µM
Cc1ncsc1COc1ccc2oc(C)c(C(=O)N[C@@H]3C(=O)NC[C@H]3O)c2c1 [compound 392, N-((3S,4R)-4-hydroxy-2-oxopyrrolidin-3-yl)-2-methyl-5-((4-methylthiazol-5-yl)methoxy)benzofuran-3-carboxamide]	< 1 µM
COc1ncccc1COc1cc2c(C(=O)NC3(CO)CCOCC3)c(C)oc2cc1F [compound 364, 6-fluoro-N-(4-(hydroxymethyl)tetrahydro-2H-pyran-4-yl)-5-((2-methoxypyridin-3-yl)methoxy)-2-methylbenzofuran-3-carboxamide]	< 1 µM
Cc1oc2ccc(OCc3cccnc3C(F)F)cc2c1C(=O)NC1CCNCC1(F)F (single isomer, unassigned) [cpd 342-En 1]	< 1 µM

same assay, conditions: PS (50 μM) stimulated, cpd 001-199

Structure (SMILES)	IC50
Cc1ncsc1COc1ccc2oc(C)c(C(=O)NC3(CCO)CCC3)c2c1 [compound 114, N-(1-(2-hydroxyethyl)cyclobutyl)-2-methyl-5-((4-methylthiazol-5-yl)methoxy)benzofuran-3-carboxamide]	< 1 µM
Cc1ncsc1COc1ccc2oc(C)c(C(=O)NC3(C(N)=O)COC3)c2c1 [compound 119, N-(3-carbamoyloxetan-3-yl)-2-methyl-5-((4-methylthiazol-5-yl)methoxy)benzofuran-3-carboxamide]	< 1 µM
Cc1ncsc1COc1ccc2oc(C)c(C(=O)NC3CCNC3=O)c2c1 (stereo not shown) [compound 042, 2-methyl-5-((4-methylthiazol-5-yl)methoxy)-N-(2-oxopyrrolidin-3-yl)benzofuran-3-carboxamide]	< 1 µM
Cc1oc2ccc(OCc3cccnc3C(F)(F)F)cc2c1C(=O)N[C@@H]1CN(C(=O)OCC(F)(F)F)CC1(F)F [compound 175, 2,2,2-trifluoroethyl (R)-3,3-difluoro-4-(2-methyl-5-((2-(trifluoromethyl)pyridin-3-yl)methoxy) -benzofuran-3-carboxamido)pyrrolidine-1-carboxylate]	< 1 µM
Cc1cncc(COc2ccc3oc(C)c(C(=O)N[C@H]4CCNC4)c3c2)c1 [compound 028, (S)-2-methyl-5-((5-methylpyridin-3-yl)methoxy)-N-(pyrrolidin-3-yl)benzofuran-3-carboxamide]	< 1 µM
Cc1ncsc1COc1ccc2oc(C)c(C(=O)NC3(CN(C)C)CCC3)c2c1 [compound 108, N-(1-((dimethylamino)methyl)cyclobutyl)-2-methyl-5-((4-methylthiazol-5-yl)methoxy)benzofuran-3-carboxamide]	< 1 µM

same assay, conditions: PS (50 μM) stimulated, cpds. 400-499

Structure (SMILES)	IC50
Cc1ncc(COc2ccc3oc(C)c(C(=O)NC(C)(CO)CO)c3c2)s1 [compound 425, N-(1,3-dihydroxy-2-methylpropan-2-yl)-2-methyl-5-((2-methylthiazol-5-yl)methoxy)benzofuran-3-carboxamide]	< 1 µM
Cc1oc2ccc(OCc3nccn3C)cc2c1C(=O)NC(C)(CO)CO [compound 422, N-(1,3-dihydroxy-2-methylpropan-2-yl)-2-methyl-5-((1-methyl-1H-imidazol-2-yl)methoxy)benzofuran-3-carboxamide]	< 1 µM
Cc1ncc(COc2ccc3oc(C)c(C(=O)NC(C)(C)C(N)=O)c3c2)s1 [compound 439, N-(1-amino-2-methyl-1-oxopropan-2-yl)-2-methyl-5-((2-methylthiazol-5-yl)methoxy)benzofuran-3-carboxamide]	< 1 µM
Cc1oc2ccc(OCc3cccnn3)cc2c1C(=O)NC(C)(C)C(N)=O [compound 441, N-(1-amino-2-methyl-1-oxopropan-2-yl)-2-methyl-5-(pyridazin-3-ylmethoxy)benzofuran-3-carboxamide]	< 1 µM

same assay, conditions: PS (50 μM) stimulated, cpds. 500-599

Structure (SMILES)	IC50
Cc1cc(COc2ccc3oc(C)c(C(=O)NC4CCNCC4(F)F)c3c2)no1 (single isomer, unassigned) [cpd 553-En 2]	1 to 20 µM
Cc1oc2ccc(OCc3ccc4nccn4c3)cc2c1C(=O)NC1CCNCC1(F)F (single isomer, unassigned) [cpd 571-En 1]	1 to 20 µM
Cc1ncc(COc2ccc3oc(C)c(C(=O)NCC(C)(C)F)c3c2)s1 [compound 504, N-(2-fluoro-2-methylpropyl)-2-methyl-5-((2-methylthiazol-5-yl)methoxy)benzofuran-3-carboxamide]	< 1 µM
Cc1ncc(COc2ccc3oc(C)c(C(=O)NC4CCNCC4(F)F)c3c2)s1 (single isomer, unassigned) [cpd 549-En 2]	1 to 20 µM
Cc1oc2ccc(OCc3ccnn3C)cc2c1C(=O)NC1CCNCC1(F)F (single isomer, unassigned) [cpd 543-En 1]	< 1 µM
Cc1ncc(COc2ccc3oc(C)c(C(=O)NC4(CO)CCNC4)c3c2)s1 (single isomer, unassigned) [530-En 1, N-(3-(hydroxymethyl)pyrrolidin-3-yl)-2-methyl-5-((2-methylthiazol-5-yl)methoxy)benzofuran-3-carboxamide]	1 to 20 µM

same assay, conditions: PS (50 μM) stimulated, cpds. 608-666

Structure (SMILES)	IC50
Cc1oc2ccc(OCc3ccc[nH]c3=O)cc2c1C(=O)NC1(CO)CCOCC1 [compound 614, N-(4-(hydroxymethyl)tetrahydro-2H-pyran-4-yl)-2-methyl-5-((2-oxo-1,2-dihydropyridin-3-yl)methoxy)benzofuran-3-carboxamide]	< 1 µM
Cc1ncsc1COc1ccc2oc(C)c(C(=O)N(C)C3(CO)CCOCC3)c2c1 [compound 634, N-(4-(hydroxymethyl)tetrahydro-2H-pyran-4-yl)-N.2-dimethyl-5-((4-methylthiazol-5-yl)methoxy)benzofuran-3-carboxamide]	< 1 µM
Cc1oc2ccc(OCc3cccnc3O)cc2c1C(=O)NC1COCC1(F)F (single isomer, unassigned) [cpd 648-En 1]	< 1 µM

same assay, conditions: PS (50 μM) stimulated, cpds. 667-751

Structure (SMILES)	IC50
Cc1oc2ccc(OCc3cccnc3N3CCC3)cc2c1C(=O)N[C@@H](CO)C(N)=O [compound 706, (S)-N-(1-amino-3-hydroxy-1-oxopropan-2-yl)-5-((2-(azetidin-1-yl)pyridin-3-yl)methoxy)-2-methylbenzofuran-3-carboxamide]	< 1 µM
NC(=O)[C@H](CO)NC(=O)c1c(C2CC2)oc2ccc(OCc3ccccn3)cc12 [compound 747, (S)-N-(1-Amino-3-hydroxy-1-oxopropan-2-yl)-2-cyclopropyl-5-(pyridin-2-ylmethoxy)benzofuran-3-carboxamide]	< 1 µM
Cc1oc2ccc(OCc3ncccc3C3CC3)cc2c1C(=O)N[C@@H](CO)C(N)=O [compound 704, (S)-N-(1-Amino-3-hydroxy-1-oxopropan-2-yl)-5-((3-cyclopropylpyridin-2-yl)methoxy)-2-methylbenzofuran-3-carboxamide]	< 1 µM
